Patent US11149049B2, “Substituted nucleosides, nucleotides and analogs thereof” (JANSSEN BIOPHARMA, INC., priority 2017, dated 2021)
Like-named read-outs stand apart in the source and are kept apart here.

Tests used:
[1] = tested on: Ebola minigenome; test: microbe, parasite or virus in culture; format: cell-based; settings: Zaire ebolavirus, HEp-2, 48 h, read-out: EBOV EC50, HEp-2 cells, Ebola minigenome, 48 hours
[2] = tested on: Human rhinovirus 1B; test: Rhinovirus antiviral assay (HRV1B); format: cell-based; settings: Rhinovirus A, 96 h
[3] = tested on: human β-coronavirus strain OC43; test: Coronavirus antiviral assay (OC43); format: cell-based; settings: Betacoronavirus 1, OC43, 120 h; HeLa or MRC-5 cells, five days, CellTiter-Glo; read-out: OC43CoV EC50
Procedure: (§1) The human β-coronavirus strain OC43 was purchased from ATCC (Manassas, Va.; item numbers VR-1558 and VR-740, respectively). 24 hours prior to dosing, HeLa human cervix epithelial cells (ATCC, CCL-2) or MRC-5 human lung fibroblast (ATCC, CCL-171) were plated in 96 well plates at a density of 1.5×10^5/ml in DMEM medium supplemented with 10% fetal bovine serum, 1% HEPES buffer, 1% Penicillin/Streptomycin and 1% non-essential amino acids (all Mediatech, Manassas, Va.). At the day of infection, serially diluted compounds were added to cells and incubated for 4 hours. After the end of the 4 hour pre-incubation period, cells were infected with either coronavirus strain OC43 or 229E. The virus inoculum was selected to cause 80-90% cytopathic effect. Infected cells were incubated for five days at 37° C., 5% CO2. To develop the assay, 100 μl media was replaced with 100 μl CellTiter-Glo® reagent (Promega, Madison, Wis.), and incubated for 10 min at room temperature. Luminescence was measured on a Victor X3 multi-label plate reader. Potential compound cytotoxicity was determined using uninfected parallel cultures.

[4] = Cytotoxicity in the coronavirus assay, uninfected parallel cultures; format: cell-based; settings: human, read-out: OC43CoV CC50
Procedure: as §1

[5] = tested on: Dengue virus type 2 NG-C or Dengue virus type 4 H241; test: Dengue antiviral assay (DENV); format: cell-based; settings: Huh-7.5 cells, five to six days, CellTiter-Glo
Procedure: The Dengue virus type 2 strain New Guniea C (NG-C) and the Dengue virus type 4 strain H241 were purchased from ATCC (Manassas, Va.; item numbers VR-1584 and VR-1490, respectively). 24 hours prior to dosing, Huh-7.5 cells were plated in 96 well plates at a density of 1.5×10^5/ml in DMEM medium supplemented with 10% fetal bovine serum, 1% HEPES buffer, 1% Penicillin/Streptomycin and 1% non-essential amino acids (all Mediatech, Manassas, Va.). At the day of infection, serially diluted compounds were added to cells and incubated for 4 hours. After the end of the 4 hour pre-incubation period, cells were infected with either Dengue virus type 2 NG-C or Dengue virus type 4 H241. The virus inoculum was selected to cause 80-90% cytopathic effect in five to six days. Infected cells were incubated for five (NG-C) to six (H241) days at 37° C., 5% CO2. To develop the assay, 100 μl media was replaced with 100 μl CellTiter-Glo® reagent (Promega, Madison, Wis.), and incubated for 10 min at room temperature. Luminescence was measured on a Victor X3 multi-label plate reader. Potential compound cytotoxicity was determined using uninfected parallel cultures.

[6] = tested on: RSV replicon; test: microbe, parasite or virus in culture; format: cell-based; settings: human respiratory syncytial virus, 168 h, read-out: RSV EC50, HeLa-derived RSV replicon cells, 7 days, luciferase
[7] = in vitro; settings: human
[8] = Toxicity (CC50) in the HRV1B assay; settings: human
[9] = Cell viability (CC50) in the RSV replicon assay; settings: human, HeLa-derived cells containing the stable RSV replicon, CellTiter-Glo
[10] = Cytotoxicity in the DENV assay, uninfected parallel cultures; settings: human
[11] = tested on: Huh-7.5 cells; test: as above; settings: read-out: DENV CC50; uninfected Huh-7.5 parallel cultures
[12] = target: human rhinovirus 16 RNA polymerase (Human rhinovirus 16 (HRV-16), UniProt Q82122); format: biochemical; settings: recombinant enzyme, tritiated NMP incorporation, 2.5 hours at 30° C.; read-out: HRV16pol IC50
Sequence of human rhinovirus 16 RNA polymerase (Q82122 1694-2153 limits assumed): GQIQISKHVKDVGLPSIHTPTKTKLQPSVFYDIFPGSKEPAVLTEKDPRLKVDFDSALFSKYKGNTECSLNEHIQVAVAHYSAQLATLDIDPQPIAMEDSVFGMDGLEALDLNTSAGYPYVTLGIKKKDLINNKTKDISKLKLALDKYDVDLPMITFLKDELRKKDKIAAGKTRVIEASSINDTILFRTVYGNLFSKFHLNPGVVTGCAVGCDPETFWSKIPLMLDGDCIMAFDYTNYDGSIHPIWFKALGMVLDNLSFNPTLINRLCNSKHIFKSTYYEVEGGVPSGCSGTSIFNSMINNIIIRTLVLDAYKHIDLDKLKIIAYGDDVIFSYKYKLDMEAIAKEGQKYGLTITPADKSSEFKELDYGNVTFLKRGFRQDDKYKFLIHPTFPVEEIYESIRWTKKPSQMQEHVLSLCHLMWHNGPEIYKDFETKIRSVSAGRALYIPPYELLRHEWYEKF

[13] = target: hepatitis C virus RNA polymerase (Hepatitis C virus genotype 1a (isolate H77) (HCV), UniProt P27958); test: HCV polymerase assay (HCVpol); format: biochemical; settings: recombinant enzyme, tritiated NMP incorporation, 2.5 hours at 30° C.
Sequence of hepatitis C virus RNA polymerase (P27958 2421-3011 limits assumed): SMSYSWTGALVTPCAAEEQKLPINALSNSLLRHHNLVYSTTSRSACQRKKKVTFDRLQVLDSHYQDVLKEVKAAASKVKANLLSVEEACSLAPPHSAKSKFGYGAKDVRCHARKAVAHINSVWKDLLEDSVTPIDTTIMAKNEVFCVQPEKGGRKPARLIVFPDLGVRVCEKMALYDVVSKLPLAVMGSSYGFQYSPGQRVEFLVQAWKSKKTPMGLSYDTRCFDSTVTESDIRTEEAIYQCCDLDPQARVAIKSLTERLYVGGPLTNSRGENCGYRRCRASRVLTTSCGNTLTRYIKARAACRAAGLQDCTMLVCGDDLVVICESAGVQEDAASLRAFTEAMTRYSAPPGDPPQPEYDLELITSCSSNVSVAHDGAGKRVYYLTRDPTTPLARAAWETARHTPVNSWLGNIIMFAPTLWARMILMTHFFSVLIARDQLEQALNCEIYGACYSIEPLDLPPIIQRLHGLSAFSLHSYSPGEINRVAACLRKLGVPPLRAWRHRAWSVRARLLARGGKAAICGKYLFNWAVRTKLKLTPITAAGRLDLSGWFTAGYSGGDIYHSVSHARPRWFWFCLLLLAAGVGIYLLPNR
Procedure: The enzyme activity of hepatitis C virus RNA polymerase (HCVpol) and human rhinovirus 16 RNA polymerase (HRV16pol) is measured as an incorporation of tritiated NMP into acid-insoluble RNA products. HCVpol and HRV16pol assay reactions contain 30-100 nM recombinant enzyme, 50-500 nM heteropolymeric RNA, 0.5 μCi tritiated NTP, 0.1-1 μM of other NTPs, in a standard reaction buffer containing MgCl2. Enzymatic reactions are incubated for 2.5 hours at 30° C., in the presence of increasing concentration of inhibitor. At the end of the reaction, the total RNA is precipitated with 10% TCA, and acid-insoluble RNA products are filtered on a size exclusion 96-well plate. After washing of the plate, scintillation liquid is added and radiolabeled RNA products are detected according to standard procedures with a Trilux Microbeta scintillation counter. The compound concentration at which the enzyme-catalyzed rate is reduced by 50% (IC50) is calculated by fitting the data to a non-linear regression (sigmoidal).

[14] = target: dengue virus NS5 polymerase domain (Dengue virus type 2, UniProt P14340); test: Dengue polymerase assay (DENVpol); settings: 100 nM recombinant enzyme, 3 hours at 30° C., mean of several independent experiments
Procedure: The enzyme activity of dengue virus NS5 polymerase domain (DENVpol, serotype 2, New Guinea C strain) was measured as an incorporation of tritiated NMP into acid-insoluble RNA products. DENVpol assay reactions contained 100 nM recombinant enzyme, 50 nM heteropolymeric RNA, about 0.5 μCi tritiated NTP, 0.33 μM of competing cold NTP, 40 mM HEPES (pH 7.5), 3 mM dithiothreitol, and 2 mM MgCl2. Standard reactions were incubated for 3 hours at 30° C., in the presence of increasing concentration of inhibitor. At the end of the reaction, RNA was precipitated with 10% TCA, and acid-insoluble RNA products were filtered on a size exclusion 96-well plate. After washing of the plate, scintillation liquid was added and radiolabeled RNA products were detected according to standard procedures with a Trilux Topcount scintillation counter. The compound concentration at which the enzyme-catalyzed rate was reduced by 50% (IC50) was calculated by fitting the data to a non-linear regression (sigmoidal).

[15] = in vitro; settings: human; remark: listed apart in the source
[16] = read-out: HRV 1B EC50, HeLa-OHIO cells, 4 d, CellTiter-Glo
[17] = DENV CC50, uninfected Huh-7.5 parallel cultures

SMILES | EC50 [1] [nM] | EC50 [3] [nM] | CC50 at 5 days [4] [nM] | EC50 ([5]; Dengue virus, Huh7.5, 144 h) [nM] | EC50 [6] [nM] | CC50 [7] [nM] | IC50 [12] [nM] | IC50 [13] [nM] | IC50 [14] [nM] | further results
CC(C)OC(=O)[C@H](C)NP(=O)(OC[C@@]1(F)O[C@@](C#N)(c2ccc3c(N)ncnn23)[C@H](O)[C@@H]1O)Oc1ccccc1 (stereo partly drawn) [Compound 6, Isopropyl ((((2S,3S,4R,5R)-5-(4-aminopyrrolo[2,1-f][1,2,4]triazin-7-yl)-5-cyano-2-fluoro-3,4-dihydroxytetrahydrofuran-2-yl)methoxy)(phenoxy)phosphoryl)-L-alaninate] | 2500 | 1700 | > 100000 | 250 | 20 | > 100000 |  |  |  | EC50 [2, 16]: 4100 nM; EC50 [5]: 330 nM; CC50 at 4 d [8]: > 100000 nM; CC50 at 7 days [9]: 43000 nM; CC50 [10, 17]: 78000 nM; CC50 [11]: 69000 nM
N#C[C@@]1(c2ccc3c(N)ncnn23)O[C@](CF)(COP(=O)(O)OP(=O)(O)OP(=O)(O)O)[C@@H](O)[C@H]1O [Compound 13, ((2R,3S,4R,5R)-5-(4-Aminopyrrolo[2,1-f][1,2,4]triazin-7-yl)-5-cyano-2-(fluoromethyl)-3,4-dihydroxytetrahydrofuran-2-yl)methyl tetrahydrogen triphosphate] |  |  |  |  |  |  | 210 | > 10000 | > 10000 | 
N#C[C@@]1(c2ccc3c(N)ncnn23)O[C@H](COP(=O)(O)OP(=O)(O)OP(=O)(O)O)[C@@H](O)[C@H]1O [Compound C2, reference compound] |  |  |  |  |  |  | 270 | 1000 | 3600 | 
N#C[C@@]1(c2ccc3c(N)ncnn23)O[C@@](COP(=O)(O)OP(=O)(O)OP(=O)(O)O)(N=[N+]=[N-])[C@@H](O)[C@H]1O [Compound 14, ((2R,3S,4R,5R)-5-(4-Aminopyrrolo[2,1-f][1,2,4]triazin-7-yl)-2-azido-5-cyano-3,4-dihydroxytetrahydrofuran-2-yl)methyl tetrahydrogen triphosphate] |  |  |  |  |  |  | 40 | 300 | 1100 | 
N#C[C@@]1(c2ccc3c(N)ncnn23)O[C@](F)(COP(=O)(O)OP(=O)(O)OP(=O)(O)O)[C@@H](O)[C@H]1O [Compound 12, ((2S,3S,4R,5R)-5-(4-Aminopyrrolo[2,1-f][1,2,4]triazin-7-yl)-5-cyano-2-fluoro-3,4-dihydroxytetrahydrofuran-2-yl)methyl tetrahydrogen triphosphate] |  |  |  |  |  |  | 130 | 400 | 1100 | 
CC(C)CCOC(=O)C[C@H](NP(=O)(OC[C@@]1(F)O[C@@](C#N)(c2ccc3c(N)ncnn23)[C@H](O)[C@@H]1O)Oc1ccccc1)C(=O)OCCC(C)C (stereo partly drawn) [Compound 7, Diisopentyl ((((2S,3S,4R,5R)-5-(4-aminopyrrolo[2,1-f][1,2,4]triazin-7-yl)-5-cyano-2-fluoro-3,4-dihydroxytetrahydrofuran-2-yl)methoxy)(phenoxy)phosphoryl)-L-aspartate] | 200 | 56 | 13000 | 1.4 | 30 | 14000 |  |  |  | EC50 [2, 16]: 150 nM; CC50 at 4 d [8]: 12400 nM; CC50 at 7 days [9]: 21000 nM; CC50 [10, 17]: 15000 nM; CC50 [11]: 21000 nM
CCC(CC)COC(=O)[C@@H](C)NP(=O)(OC[C@H]1O[C@@](C#N)(c2ccc3c(N)ncnn23)[C@H](O)[C@@H]1O)Oc1ccccc1 (some centres unmarked) [Compound C1, reference compound] | 800 | 65 | 69000 | 130 | 20 | 51000 |  |  |  | EC50 ([2]; HeLa-OHIO cells, 4 d, CellTiter-Glo, read-out: HRV 1B EC50): 120 nM; CC50 at 4 d [15]: 6000 nM; CC50 [10]: 22000 nM
